Values quoted from earlier work as cited in US20110189317A1, “Method for Inhibiting the Activity of DPP-IV and Lowering Blood Glucose Level” (Naturalendo Tech Co., Ltd., priority 2006, published 2011).
Like-named read-outs stand apart in the source and are kept apart here.

What was measured:
[1] = combined administration of Metformin with LAF237 or placebo, after 52 weeks; p<0.0001
insulin secretion = settings: read-out: EC50 (half-maximal effective concentration), insulin secretion

Compound	HbA1c difference [1]	blood glucose level (GLP-1 dropping for 4 hours, patients with secondary failure on oral hypoglycemic agent)	blood glucose level (intravenously, continuously for 1 week, regular diet)	EC50 (insulin secretion)
N#C[C@@H]1CCCN1C(=O)CNC12CC3CC(CC(O)(C3)C1)C2 [LAF237]	1.1±0.2%	–	–	–
GLP-1: incretin hormone composed of total 30 amino acids, facilitates insulin secretion	–	complete normalization in the blood glucose level	nearly normal blood glucose level	~0.01 nM
